Drawing on patent publication US20150297615A1, “ANDROGEN RECEPTOR INACTIVATION CONTRIBUTES TO ANTITUMOR EFFICACY OF CYP17 INHIBITORS IN PROSTATE CANCER” (UNIVERSITY OF MARYLAND, BALTIMORE, priority 2008, published 2015), this text covers inhibition and IC50 for 3 compounds.

One assay concerns the target T1, T877A AR (Homo sapiens, UniProt P10275, T878A).
T1 construct: endogenous in cells; host or cells: LNCaP cells
T1 sequence (P10275 1-920 T878A): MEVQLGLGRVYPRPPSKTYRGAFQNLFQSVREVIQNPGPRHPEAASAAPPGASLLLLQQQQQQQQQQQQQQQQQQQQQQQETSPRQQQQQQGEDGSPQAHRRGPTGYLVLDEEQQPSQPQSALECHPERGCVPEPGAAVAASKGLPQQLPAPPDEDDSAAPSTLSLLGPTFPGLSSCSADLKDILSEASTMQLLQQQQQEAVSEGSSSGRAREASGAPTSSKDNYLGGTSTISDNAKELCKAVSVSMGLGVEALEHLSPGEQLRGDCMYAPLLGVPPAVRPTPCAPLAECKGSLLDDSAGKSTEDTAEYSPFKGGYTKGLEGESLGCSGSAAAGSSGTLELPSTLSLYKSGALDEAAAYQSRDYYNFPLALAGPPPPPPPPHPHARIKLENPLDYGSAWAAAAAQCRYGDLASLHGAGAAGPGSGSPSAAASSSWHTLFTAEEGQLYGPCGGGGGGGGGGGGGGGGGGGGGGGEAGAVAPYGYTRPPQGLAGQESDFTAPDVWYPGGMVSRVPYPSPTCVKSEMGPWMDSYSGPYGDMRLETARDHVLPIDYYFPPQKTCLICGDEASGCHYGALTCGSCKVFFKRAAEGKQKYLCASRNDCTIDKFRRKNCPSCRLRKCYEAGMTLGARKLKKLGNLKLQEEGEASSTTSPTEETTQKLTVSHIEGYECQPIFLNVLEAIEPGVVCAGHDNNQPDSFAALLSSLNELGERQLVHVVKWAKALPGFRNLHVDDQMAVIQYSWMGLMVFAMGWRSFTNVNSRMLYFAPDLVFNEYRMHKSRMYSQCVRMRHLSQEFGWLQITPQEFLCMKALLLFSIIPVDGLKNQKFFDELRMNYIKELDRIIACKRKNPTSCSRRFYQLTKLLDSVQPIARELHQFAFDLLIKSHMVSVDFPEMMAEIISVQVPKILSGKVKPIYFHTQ
The assay is described as follows: Competitive inhibition of [3H]R1881 binding, T877A AR (LNCaP cells). The conditions noted are these: read-out: T877A (LNCaP), inhibition of [3H]R1881 binding as symbol. The method, then:
(§1) In order to determine if the CYP17 inhibitors interact with the AR, competitive binding assays were performed as described previously. The ability of the test compounds (1 nM-10 μM) to displace [^3H]R1881 (5.0 nM) from the AR was determined in LAPC4 cells (wild-type AR), PC3 cells transfected with wild-type AR (PC3-AR), LNCaP cells which express an endogenous AR with a mutation in the ligand binding domain (T877A), and PC3 cells transfected with an AR containing a mutation in the DNA binding domain (T575A).
(§2) The ability of the test compounds to displace [^3H]R1881 (5.0 nM) from the androgen receptor was determined in LAPC4 cells (wild-type AR), PC3 cells transfected with wild-type AR, LNCaP cells which express an endogenous AR with a mutation in the ligand binding domain (T877A), and PC3 cells transfected with an AR containing a mutation in the DNA binding domain (T575A). Cells were plated (2-3×10^5) in 24 well multiwell dishes in steroid-free medium and allowed to attach. The following day the medium was replaced with serum-free, steroid free RPMI supplemented with 0.1% BSA and containing [^3H]R1881 (5 nM), test compounds (1 nM-10 μM), and 1 μM triamcinolone acetonide to saturate progesterone and glucocorticoid receptors. Following a 2 hour incubation period at 37° C., cells were washed twice with ice-cold DPBS and solubilized in DPBS containing 0.5% SDS and 20% glycerol.

In a further assay the target is T2, wild-type AR (Homo sapiens, UniProt P10275).
T2 construct: the wild-type AR expressed endogenously in LAPC4 cells; endogenous in cells; host or cells: LAPC4 cells (endogenous) and PC3-AR cells (PC-3 stably transfected with human wild-type AR)
T2 sequence (P10275 1-920): T1 sequence (P10275 1-920 T878A) with A878T
The assay is described as follows: Competitive inhibition of [3H]R1881 binding, wild-type AR (LAPC4/PC3-AR cells). The conditions noted are these: read-out: wild-type (LAPC4/PC3-AR), inhibition of [3H]R1881 binding as symbol. As for the experimental part: as §1, §2

For another assay, the system named is LAPC4 cells. The assay is described as follows: Cell proliferation assay (MTT), LAPC4 cells. Conditions: Homo sapiens, LAPC4, 168 h.
The next assay concerns LNCaP cells. Put plainly: Cell proliferation assay (XTT), LNCaP cells. The conditions noted are these: Homo sapiens, 168 h.
The mark [1] stands for this setting: read-out: LAPC4 IC50 (μM), DHT +.
Where [2] appears, read: read-out: LAPC4 IC50 (μM), DHT −.
Setting [3] is: read-out: LNCaP IC50 (μM), DHT +.
Setting [4] is: read-out: LNCaP IC50 (μM), DHT −.

Positions count from the first letter of the chain named. Where two headings read alike, the source gives them in different places.

Protocol for LAPC4 cells: To determine the effect of steroids and novel compounds on cell proliferation, each cell type was transferred into steroid-free medium three days prior to the start of the experiments (steroid-free medium consisted of phenol red free RPMI supplemented with 5% dextran-coated, charcoal treated serum and 1% penicillin/streptomycin solution). Growth studies were then performed by plating cells (1.5×10^4cells/well) in 24-well multiwell dishes (Corning, Inc. Corning, N.Y.). After a 24 hour attachment period, the medium was aspirated and replaced with steroid-free medium containing vehicle or the indicated concentrations of androgens and novel compounds (1 nM-10 μM). Control wells were treated with vehicle (ethanol). […] The medium was changed every three days and the numbers of viable cells were compared by MTT or XTT (LNCaP) assay on the seventh day.
For the MTT procedure, following incubation of cells for the above mentioned time, 0.5 mg/ml MTT was added to each well and incubated at 37° C. for three hours. Following incubation, the medium was aspirated completely, with care taken not to disturb the formazan crystals. DMSO (500 μl) was used to solubilize these crystals. After slight shaking, the plates were read at 540 nm with a Victor 1420 scanning multi-well spectrophotometer. All results represent the average of a minimum of three wells. Additional control consisted of medium alone with no cells. XTT was performed essentially as MTT, with the deletion of the solubilization step and was preferred for the LNCaP cells that adhere poorly to the plates.
LNCaP cells were seeded at 15,000 cells/well in 24 well multi-well plates, and LAPC4 cells were seeded at 15,000 cells/well. […] The number of viable cells was compared by MTT assay (LAPC4) or XTT assay (LNCaP) on the 7th day.

In the case of `C[C@]12CC[C@H](O)CC1=CC[C@@H]1[C@@H]2CC[C@]2(C)C(c3cccnc3)=CC[C@@H]12` [Abiraterone], the inhibition at 10 µM on T877A AR and on wild-type AR was less than 20% throughout.

Turning to `CC(O)(CS(=O)(=O)c1ccc(F)cc1)C(=O)Nc1ccc(C#N)c(C(F)(F)F)c1` (stereo not shown) [Casodex, Bicalutamide], the IC50 with LAPC4 cells (setting [1]) was 10 µM; in the assay on LAPC4 cells (setting [2]), 9 µM; with LNCaP cells (setting [3]) it was 8.6 µM; in the assay with LNCaP cells (setting [4]) it was 4.6 µM.

For `C[C@]12CC[C@H](O)CC1=CC[C@@H]1[C@@H]2CC[C@]2(C)C(n3cnc4ccccc43)=CC[C@@H]12` [VN/124-1, 3β-hydroxy-17-(1H-benzimidazole-1-yl)androsta-5,16-diene], the IC50 with LAPC4 cells (setting [1]) amounted to 3.2 µM; with LAPC4 cells (setting [2]), 4 µM; with LNCaP cells (setting [3]), 6 µM; in the assay on LNCaP cells (setting [4]) it was 2.6 µM.
